Assay results as given in patent US20230103007A1, “COMBINATION THERAPY FOR TREATING ABNORMAL CELL GROWTH” (priority 2020, published 2023).

Experiments:
[1] = system: KRAS G12C mt NSCLC and colorectal cancer cell lines (H2122, H358, H2030, H1373, SW837, SW1463); assay: 3D proliferation assay in vitro (CellTiter-Glo 3D, synergy analysis); type: cell-based; details: 7 days treatment, panel of KRAS G12C mt NSCLC and CRC cell lines, Loewe model
Protocol: KRAS G12C mutant NSCLC (H2122, H358, H2030, H1373) and colorectal cancer (CRC; SW837 and SW1463) were used. Briefly, 96-well plates were coated with 50 μL of Matrigel (100%) and incubated at 37° C. and 5% CO2 for 30 min in order for the Matrigel to solidify. Cells were seeded in 100 μL of 2% Matrigel containing medium. After an incubate overnight (17-22 hours) cells were treated with VS-6766 +/−G12C inhibitor +/−Defactinib for 7 days. Cell viability was measured using the cell viability CellTiter-Glo 3D assay. Combination effects were evaluated by comparing the averaged viability/inhibition to two different null reference models derived from the single agent activities. Bliss, Loewe and Highest Single Agent synergy analysis were performed to determine synergy scores.

[2] = system: H2122 KRAS G12C mt NSCLC xenograft; assay: Xenograft efficacy study, H2122; type: in vivo, Balb/c nude mice; details: for effect on AMG-510 efficacy (change in tumor volume): in combination with AMG-510, H2122 tumor bearing mice, 10 days; for mice with tumor regression, combination with sotorasib: in combination with sotorasib, 10 days of treatment; for augmentation of tumor growth inhibition by sotorasib: 0.3 mg/kg QD in combination with sotorasib 30 mg/kg QD
Protocol: (§1) KRAS G12C mutant NSCLC H2122 and H358 tumor cells and Balb/c nude mice were used. Tumor challenge was initiated by subcutaneous inoculation of 1×10^7 tumor cell suspensions into the right flank of recipient mice. Tumor sizes (mm^3) and body weights were measured 3 times per week for the duration of the study. At the time of routine monitoring, the animals were checked for any effects of tumor growth and treatments on normal behavior such as mobility, food and water consumption (by looking only), and body weight gain/loss, eye/hair matting and any other abnormal effect.
(§2) For efficacy studies, once tumors reached an average volume of 150-200 mm^3, mice were sorted into 10 groups (n=10): vehicle 1 (5% DMSO, 10% HPCD in sterile water)+vehicle 2 (2% HPMC, 1% Tween 80 in sterile water), VS-6766 in vehicle 1 (0.3 mg/kg PO QD, 28 days)+vehicle 2, AMG-510 in vehicle 2 (30 mg/kg PO QD, 28 days)+vehicle 1, VS-6766+AMG-510, VS-4718 (0.5% CMC-Na, 0.1% Tween 80 in sterile water) (50 mg/kg PO BID, 28 days)+vehicle 2, VS-4718+VS-6766, VS-4718+AMG-510, VS-4718+AMG-510+VS-6766, trametinib (0.3 mg/kg PO QD, 28 days) (0.5% hydroxypropylmethylcellulose and 0.2% Tween-80 in distilled water (pH 8.0))+vehicle 2, and trametinib+AMG-510. Mice were euthanized when tumor volumes>2,000 mm^3.

[3] = system: H358 KRAS G12C mt NSCLC xenograft; assay: Xenograft efficacy study, H358; type: in vivo, Balb/c nude mice; details: in combination with G12Ci (AMG-510); 21 days
Protocol: as §1, §2

[4] = system: RAS pathway signaling (pMEK, pERK, p-p90RSK); assay: Western blot of RAS pathway signaling in KRAS G12C mt NSCLC cell lines; type: cell-based
Protocol: KRAS G12C mutant NSCLC cells (H2122, H358, H1373 and SW1573) were seeded in 10-cm dishes. After an incubate overnight (17-22hrs) cells were treated with 100 nM VS-6766 +/−100 nM G12C inhibitor. 4 and 48 hours post compound treatment, cells were collected, and cell lysates prepared using RIPA buffer containing protease inhibitors. Western blot assays were run using antibodies for pMEK, MEK, pERK, ERK, p-p90RSK, p90RSK and actin.

[5] = system: pMEK and pERK in H2122 KRAS G12C NSCLC xenograft tumors; assay: Pharmacodynamic study in H2122 xenograft tumors (pMEK, pERK western blot); type: in vivo, Balb/c nude mice; details: VS-6766 0.3 mg/kg + AMG-510 30 mg/kg, oral, daily for 5 days; tumors harvested 2, 8 and 24 hours after final dose
Protocol: as §1

[6] = 100 nM VS-6766 + 100 nM AMG-510, 4 and 48 hours
[7] = 100 nM VS-6766 + 100 nM MRTX849, 4 and 48 hours

| Compound | synergy in reducing viability, combination with adagrasib [1] | synergy in reducing viability, combination with sotorasib [1] | effect on AMG-510 efficacy (change in tumor volume) [2] | mice with tumor regression, combination with sotorasib [2] | effect on efficacy of G12Ci in H358 xenograft model [3] | depth and duration of inhibition of MEK/ERK signaling, added to AMG-510, relative to G12C inhibitor alone [4, 6] | pERK inhibition by combination with AMG-510 versus AMG-510 alone [4, 6] | depth and duration of inhibition of MEK/ERK signaling, added to MRTX849, relative to G12C inhibitor alone [4, 7] | pERK inhibition by combination with MRTX849 versus MRTX849 alone [4, 7] | suppression of RAS pathway signaling (pMEK, pERK, p-p90RSK) as a single agent ([4]; single agent, 100 nM, 4 and 48 hours, KRAS-G12C NSCLC cell lines) | inhibition of pMEK and pERK in tumors, combination with sotorasib relative to sotorasib alone [5] | augmentation of tumor growth inhibition by sotorasib [2] | mice with tumor reductions of >35%, triple combination ([2]; triple combination of VS-6766, sotorasib and a FAK inhibitor) |
| --- | --- | --- | --- | --- | --- | --- | --- | --- | --- | --- | --- | --- | --- |
| CNC(=O)c1ccc(Nc2ncc(C(F)(F)F)c(NCc3nccnc3N(C)S(C)(=O)=O)n2)cc1 [defactinib] | synergistic | synergistic |  |  |  |  |  |  |  |  |  |  |  |
| CNC(=O)c1ccccc1Nc1cc(Nc2ccc(N3CCOCC3)cc2OC)ncc1C(F)(F)F [FAK inhibitor] |  |  | potentiate | 4/10 | enhance |  |  |  |  |  |  |  |  |
| CNS(=O)(=O)Nc1nccc(Cc2c(C)c3ccc(Oc4ncccn4)cc3oc2=O)c1F [VS-6766] | synergistic | synergistic | potentiate | 5/10 | enhance | increases depth and duration of inhibition | better | increases depth and duration of inhibition | better | effectively suppressed | improved inhibition | augmented | 10/10 |
| CC(=O)Nc1cccc(-n2c(=O)n(C3CC3)c(=O)c3c(Nc4ccc(I)cc4F)n(C)c(=O)c(C)c32)c1 [trametinib, reference compound] |  |  |  | 1/10 |  |  |  |  |  |  |  | much less effective |  |
